Data taken from patent US20030157146A1, “Stimulation of the immune system with polydextrose” (priority 2002, published 2003).

Tests used:
human fecal samples = assay: 24 h batch fermentation with human fecal samples: production of SCFA; assay type: cell-based; details: 1% of each substance, 37° C., pH 6.9, anaerobic
Experimental: The test was based on a 24 h fermentation experiment performed with human fecal samples. Fecal samples were incubated in 24-hour batch cultures at 37° C. at pH 6.9 under anaerobic conditions containing a buffer medium (mineral salt, trace elements, vitamines). The medium was supplemented with 10% extract of caecal digesta from pig. Polydextrose, polyols and their combinations were added at the level of 1% each into the test cultures.

biogenic amines = biogenic amines from caecal digesta of rats (HPLC, dansyl derivatives); assay type: in vivo, Wistar rats; details: rat caecal digesta, Example 3
Experimental: (§1) Four week old male Wistar rats, divided into a control group and three test groups, consisting of 12 rats in each group, were held at a controlled temperature (27+2° C.) and 12:12 hrs light cycle. The animals had free access to food and water. The animals were weighed once a week and their weight gain was calculated. The control group was fed four weeks with a control (basal) diet and the test group was fed four weeks with the PDX-Polyol-diet, which consisted the control (basal) diet supplemented by an immunostimulating amount of polydextrose, and polyol as described in more detail below.
The control diet was the same diet as defined in Example 1. and the PDX-Polyol-diet was the same as defined in Example 2.
The digesta samples from caecum and colon were divided into pools (3 animals per pool) for the analysis of biogenic amines. The samples were stored in −20° C. until analysed. PH was measured from the caecum in situ.
Biogenic amines were determined from caecal digesta samples. […] The derivatives were separated on a C18 reversed phase column using mixture of ammonium acetate and acetonitrile as eluent, and detected with fluorescence detector.
(§2) The in vivo test of Example 2 and the in vitro fermentation of Example 3 were repeated and the level of tyramine was measured.

[1] = laxative effect in the test animals; parameters: species or system Wistar rats; details: in vivo
Experimental: as §1, with “(27±2°” for “(27+2°”
as §2

Compound | 2-metbutyric acid, production of SCFA (%) after 24 h fermentation (human fecal samples) | Acetic acid, production of SCFA (%) after 24 h fermentation (human fecal samples) | Butyric acid, production of SCFA (%) after 24 h fermentation (human fecal samples) | Isobutyric acid, production of SCFA (%) after 24 h fermentation (human fecal samples) | Isovaleric acid, production of SCFA (%) after 24 h fermentation (human fecal samples) | Propionic acid, production of SCFA (%) after 24 h fermentation (human fecal samples) | Total SCFA after 24 h fermentation (human fecal samples) | Valeric acid, production of SCFA (%) after 24 h fermentation (human fecal samples) | amount of tyramine compared to a control diet (biogenic amines) | laxative effect [1]
OC[C@@H](O)[C@@H](O)[C@H](O)[C@@H](O)CO [Sorbitol, sorbitol] | 0.2% | 55.2% | 38.6% | 0.5% | 0.3% | 11.4% | 122.4 mmol/L | 1.4% | – | –
isomalt | 0.2% | 64.0% | – | 0.4% | 0.2% | 12.8% | 158.6 mmol/L | 1.2% | – | –
OC[C@@H](O)[C@@H](O[C@@H]1O[C@H](CO)[C@H](O)[C@H](O)[C@H]1O)[C@H](O)[C@@H](O)CO [Lactitol, lactitol] | 0.2% | 66.2% | 31.1% | 0.4% | 0.2% | 9.3% | 153.6 mmol/L | 0.9% | reduced | laxative effect
OC[C@@H](O)[C@H](O)[C@@H](O)CO [Xylitol, xylitol] | 0.3% | 45.8% | 27.9% | 0.6% | 0.3% | 12.6% | 191.6 mmol/L | 1.9% | – | –
OC[C@@H](O)[C@@H](O[C@H]1O[C@H](CO)[C@@H](O)[C@H](O)[C@H]1O)[C@H](O)[C@@H](O)CO [Maltitol, maltitol] | 0.2% | 57.9% | 21.3% | 0.4% | 0.2% | 12.1% | 157.0 mmol/L | 1.2% | – | –
